# US20250145632A1, “Pyrimidine Heterocyclic Compound, Preparation Method Thereof and use Thereof in Medicine” (INSILICO MEDICINE IP LIMITED, priority 2021, published 2025)
# Columns and labels:
# [1] = test system: HCC70 human breast ductal cancer cells; test: HCC70 tumor cell proliferation inhibition (CellTiter-Glo); type: cell-based; settings: 3 d culture
# Experimental: HCC70 was purchased from ATCC; article No.: CRL-2315; RPMI1640 was purchased from Gibco; article No.: 11875-093; Pancreatin (including EDTA) was purchased from Gibco; article No.: 25200-072; FBS was purchased from Gibco; article No.: 10099-141C; CellTiter-Glo was purchased from Promega; article No.: G7573; DMSO was purchased from VWR AMRESCO; article No.: 0231-500ML; Staurosporine was purchased from Selleck; article No.: S1421; a cell counter was purchased from CHEMOMETEC; model: NC-200; and a microplate reader was purchased from PerkinElmer; Model: Envison.
# (§1) HCC70 was human breast ductal cancer cells cultured in an RPMI-1640 culture medium containing 10% FBS. Cells in logarithmic phase were taken, and the cells were subjected to digesting, collecting and counting with pancreatin-EDTA, 2000 HCC70 cells/well were inoculated in a 384-well cell plate, and were cultured in 5% CO2 overnight. A 1000× compound stock solution with 3.16 times of gradient concentration was prepared with DMSO, and was diluted 100 times to 10× compound stock solution with a culture medium, and 10× compound stock solution was added into each cell culture well on the next day after cell inoculation, wherein the final concentration was 1×, and the DMSO content was 0.1%. The cell group was treated with DMSO as an experimental control (control), and the cell group was treated with 5 μM of Staurosporine as a blank control (blank).
# [2] = test system: OVCAR-3 human ovarian adenocarcinoma cells; test: OVCAR-3 tumor cell proliferation inhibition (CellTiter-Glo); type: cell-based; settings: 3 d culture
# Experimental: OVCAR-3 was purchased from ATCC; article No.: HTB-161; RPMI1640 was purchased from Gibco; article No.: 11875-093; Pancreatin (including EDTA) was purchased from Gibco; article No.: 25200-072; FBS was purchased from Gibco; Article No.: 10091-148; CellTiter-Glo was purchased from Promega; article No.: G7573; Bovine insulin was purchased from absin; article No.: abs9169; DMSO was purchased from VWR AMRESCO; article No.: 0231-500ML; Staurosporine was purchased from Selleck; article No.: S1421; a cell counter was purchased from CHEMOMETEC; model: NC-200; and a microplate reader was purchased from PerkinElmer; Model: Envison.
# as §1, with “OVCAR-3” for “HCC70”, “ovarian adenocarcinoma” for “breast ductal cancer”, “20% FBS and 0.01 mg/mL of Bovine insulin.” for “10% FBS.”
compound,measurement,setting,value
"CN1CCCCN(C)[C@H]2CC[C@@H](C2)Nc2ncc(C(F)(F)F)c(n2)-c2c[nH]c3c(C#N)c(ccc23)C1=O [Compound Z84, (4^1S,4^3S)-5,10-dimethyl-11-oxo-2^5-(trifluoromethyl)-1^1H-3,5,10-triaza-1(3,6)-indola-2(4,2)-pyrimidina-4(1,3)-cyclopentanacycloundecaphane-1^7-carbonitrile]",IC50,[1],263 nM
same,IC50,[2],198 nM
"CN1CCCCNC(=O)c2ccc3c(c[nH]c3c2P(C)(C)=O)-c2nc(ncc2C(F)(F)F)N[C@H]2CC[C@H]1C2 [Compound Z16, (4^1S,43S)-1^7-(dimethylphosphoryl)-5-methyl-2^5-(trifluoromethyl)-1^1H-3,5,10-triaza-1(3,6)-indola-2(4,2)-pyrimidina-4(1,3)-cyclopentanacycloundecaphan-11-one]",IC50,[1],23 nM
"CN1CCOCCN[C@H]2CC[C@@H](C2)Nc2ncc(C(F)(F)F)c(n2)-c2c[nH]c3c(P(C)(C)=O)c(ccc23)C1=O [Compound Z64, (4^1S,4^3S)-1^7-(dimethylphosphoryl)-11-methyl-2^5-(trifluoromethyl)-1^1H-8-oxa-3,5,11-triaza-1(3,6)-indola-2(4,2)-pyrimidina-4(1,3)-cyclopentanacyclododecaphan-12-one]",IC50,[1],42.8 nM
same,IC50,[2],98.6 nM
"O=C1NCCCCN[C@H]2CCC(C2)Nc2ncc(C(F)(F)F)c(n2)-c2c[nH]c3c(Cl)c1ccc23 [Compound Z11, (4^1S,43S)-1^7-chloro-2^5-(trifluoromethyl)-1^1H-3,5,10-triaza-1(3,6)-indola-2(4,2)-pyrimidina-4(1,3)-cyclopentanacycloundecaphan-11-one]",IC50,[1],186 nM
"CN1CCOCCN(C)[C@H]2CC[C@@H](C2)Nc2ncc(C(F)(F)F)c(n2)-c2c[nH]c3c(P(C)(C)=O)c(ccc23)C1=O [Compound Z63, (4^1S,4^3S)-1^7-(dimethylphosphoryl)-5,11-dimethyl-2^5-(trifluoromethyl)-1^1H-8-oxa-3,5,11-triaza-1(3,6)-indola-2(4,2)-pyrimidina-4(1,3)-cyclopentanacyclododecaphan-12-one]",IC50,[1],134 nM
same,IC50,[2],195 nM
"CP(C)(=O)c1c2ccc3c(c[nH]c13)-c1nc(ncc1C(F)(F)F)N[C@H]1CC[C@@H](C1)NCC[C@H](F)CNC2=O (single isomer, unassigned) [Compound Z68-2]",IC50,[1],3.18 nM
same,IC50,[2],8.84 nM
"CN1C[C@H](F)CCN(C)[C@H]2CC[C@@H](C2)Nc2ncc(C(F)(F)F)c(n2)-c2c[nH]c3c(P(C)(C)=O)c(ccc23)C1=O [Compound Z78, (4^1S,4^3S,8R)-1^7-(dimethylphosphoryl)-8-fluoro-5,10-dimethyl-2^5-(trifluoromethyl)-1^1H-3,5,10-triaza-1(3,6)-indola-2(4,2)-pyrimidina-4(1,3)-cyclopentanacycloundecaphan-11-one]",IC50,[1],44 nM
same,IC50,[2],62.6 nM
COc1cc2c(cn1)-c1ccc3c(c[nH]c3c1)-c1nc(ncc1C(F)(F)F)N[C@H]1CC[C@@H](C1)NCCCC2 [Compound Z73],IC50,"[1]; Homo sapiens, HCC70, 72 h",233 nM
same,IC50,"[2]; Homo sapiens, OVCAR-3, 72 h",1050 nM
"CC1CCCNC(=O)c2ccc3c(c[nH]c3c2P(C)(C)=O)-c2nc(ncc2C(F)(F)F)N[C@H]2CC[C@@H](C2)N1 (stereo partly shown) [Compound Z58, (4^1S,4^3S)-1^7-(dimethylphosphoryl)-6-methyl-2^5-(trifluoromethyl)-1^1H-3,5,10-triaza-1(3,6)-indola-2(4,2)-pyrimidina-4(1,3)-cyclopentanacycloundecaphan-11-one]",IC50,[1],233 nM
"CP(C)(=O)c1c2ccc3c(c[nH]c13)-c1nc(ncc1C(F)(F)F)N[C@H]1CC[C@@H](C1)NCCCNC2=O [Compound Z10, (4^1S, 4^3S)-1^7-(dimethylphosphoryl)-2^5-(trifluoromethyl)-1^1H-3,5,9-triaza-1(3,6)-indola-2(4,2)-pyrimidina-4(1,3)-cyclopentanacyclodecaphan-10-one]",IC50,[1],162 nM
"CN1CCCCN(C)[C@H]2CC[C@@H](C2)Nc2ncc(C(F)(F)F)c(n2)-c2c[nH]c3nc(ccc23)C1=O [Compound Z92, (4^1S,4^3S)-5,10-dimethyl-2^5-(trifluoromethyl)-1^1H-3,5,10-triaza-1(3,6)-pyrrolo[2,3-b]pyridina-2(4,2)-pyrimidina-4(1,3)-cyclopentanacycloundecaphan-11-one]",IC50,[1],107 nM
same,IC50,[2],343 nM
"CN1CCCCN(C)[C@H]2CC[C@@H](C2)Nc2ncc(C(F)(F)F)c(n2)-c2c[nH]c3c(P(C)(C)=O)c(ccc23)C1=O [Compound Z27, (4^1S,4^3S)-1^7-(dimethylphosphoryl)-5,10-dimethyl-2^5-(trifluoromethyl)-1^1H-3,5,10-triaza-1(3,6)-indola-2(4,2)-pyrimidina-4(1,3)-cyclopentanacycloundecaphan-11-one]",IC50,[1],9.7 nM
"(4^3S)-1^7-(dimethylphosphoryl)-2^5-(trifluoromethyl)-1^1H-3,11-diaza-1(3,6)-indola-2(4,2)-pyrimidina-4(3,1)-piperidinacyclododecaphan-12-one [Compound Z61]",IC50,[1],390 nM
"CN1CCOCCNC(=O)c2ccc3c(c[nH]c3c2P(C)(C)=O)-c2nc(ncc2C(F)(F)F)NC2CCC1C2 [Compound Z60, (4^1S,43S)-17-(dimethylphosphoryl)-5-methyl-2^5-(trifluoromethyl)-1^1H-8-oxa-3,5,11-triaza-1(3,6)-indola-2(4,2)-pyrimidina-4(1,3)-cyclopentanacyclododecaphan-12-one]",IC50,[1],89 nM
"CP(C)(=O)c1c2ccc3c(c[nH]c13)-c1nc(ncc1C(F)(F)F)N[C@H]1CCC[C@@H](C1)NCCCCNC2=O [Compound Z9, (4^1S,4^3S)-1^7-(dimethylphosphoryl)-2^5-(trifluoromethyl)-1^1H-3,5,10-triaza-1(3,6)-indola-2(4,2)-pyrimidina-4(1,3)-cyclohexanacycloundecaphan-11-one]",IC50,[1],99.8 nM
"CN1CCOCCNC2CCC(C2)Nc2ncc(C(F)(F)F)c(n2)-c2c[nH]c3c(S(C)(=O)=O)c(ccc23)C1=O (stereo not shown) [Compound Z72, (4^1S,4^3S)-11-methyl-1^7-(methylsulfonyl)-2^5-(trifluoromethyl)-1^1H-8-oxa-3,5,11-triaza-1(3,6)-indola-2(4,2)-pyrimidina-4(1,3)-cyclopentanacyclododecaphan-12-one]",IC50,[1],869 nM
"CP(C)(=O)c1c2ccc3c(c[nH]c13)-c1nc(ncc1C(F)(F)F)N[C@H]1CC[C@@H](C1)NCCC(F)(F)CNC2=O [Compound Z19, (4^1S,43S)-17-(dimethylphosphoryl)-8,8-difluoro-2^5-(trifluoromethyl)-1^1H-3,5,10-triaza-1(3,6)-indola-2(4,2)-pyrimidina-4(1,3)-cyclopentanacycloundecaphan-11-one]",IC50,[1],15.4 nM
"CN1CCC(F)CN(C)C2CC[C@@H](C2)Nc2ncc(C(F)(F)F)c(n2)-c2c[nH]c3c(P(C)(C)=O)c(ccc23)C1=O (stereo partly shown) [Compound Z88, (4^1S)-1^7-(dimethylphosphoryl)-7-fluoro-5,10-dimethyl-2^5-(trifluoromethyl)-1^1H-3,5,10-triaza-1(3,6)-indola-2(4,2)-pyrimidina-4(1,3)-cyclopentanacycloundecaphan-11-one]",IC50,[1],241 nM
"CP(C)(=O)c1c2ccc3c(c[nH]c13)-c1nc(ncc1C(F)(F)F)N[C@H]1CC[C@@H](C1)NCCCCCCNC2=O [Compound Z59, (4^1S,4^3S)-1^7-(dimethylphosphoryl)-2^5-(trifluoromethyl)-1^1H-3,5,12-triaza-1(3,6)-indola-2(4,2)-pyrimidina-4(1,3)-cyclopentanacyclotridecaphan-13-one]",IC50,[1],422 nM
"CP(C)(=O)c1c2ccc3c(c[nH]c13)-c1nc(ncc1C(F)(F)F)N[C@H]1CC[C@@H](C1)NCCCCCNC2=O [Compound Z6, (41 S,4^3S)-1^7-(dimethylphosphoryl)-2^5-(trifluoromethyl)-1^1H-3,5,11-triaza-1(3,6)-indola-2(4,2)-pyrimidina-4(1,3)-cyclopentanacyclododecaphan-12-one]",IC50,[1],222 nM
"CN1CCC(F)CN(C)C2CC[C@@H](C2)Nc2ncc(C(F)(F)F)c(n2)-c2c[nH]c3c(P(C)(C)=O)c(ccc23)C1=O (stereo partly shown) [Compound Z87, (4^1S)-1^7-(dimethylphosphoryl)-7-fluoro-5,10-dimethyl-2^5-(trifluoromethyl)-1^1H-3,5,10-triaza-1(3,6)-indola-2(4,2)-pyrimidina-4(1,3)-cyclopentanacycloundecaphan-11-one]",IC50,[1],243 nM
